Source: paper PMC13197777, “Distinct 2-phenylimidazo[1,2-a]pyridine derivatives that inhibit breast cancer cell proliferation identified as AHR ligands” (iScience, 2026)

Assays:
[1] = system: MCF-7 cells; assay: Clonogenic assay in MCF-7 cells with AHR antagonist CH223191; type: cell-based, human; conditions: MCF-7, 10 nM compound, 1 μM CH223191, 14 days
Procedure: (§1) Cells were seeded at a density of 1–2×10^3 cells/well in a 6-well plate and treated with increasing concentrations of the X compounds for 14–21 days. Medium and compounds were renewed every 7 days. The experiments were terminated by fixing the cells with methanol and the colonies formed were visualized after staining with 0.5% crystal violet (w/v) in 20% methanol (v/v). Plates were photographed and the area covered by the colonies was calculated using the ColonyArea Plugin for Fiji (RRID:SCR_003070).[20]

[2] = biological target: T1, AHR (Homo sapiens, UniProt P35869); assay: AHR luciferase reporter assay in HAHLH cells; type: cell-based; conditions: 8 h; for EC50: % of maximal luciferase activity with dioxin 10 nM, read-out: EC50 AHR transactivation
T1 construct: endogenous in cells; host or cells: HAHLH (HeLa with XRE-luciferase reporter)
T1 sequence (P35869 11-848): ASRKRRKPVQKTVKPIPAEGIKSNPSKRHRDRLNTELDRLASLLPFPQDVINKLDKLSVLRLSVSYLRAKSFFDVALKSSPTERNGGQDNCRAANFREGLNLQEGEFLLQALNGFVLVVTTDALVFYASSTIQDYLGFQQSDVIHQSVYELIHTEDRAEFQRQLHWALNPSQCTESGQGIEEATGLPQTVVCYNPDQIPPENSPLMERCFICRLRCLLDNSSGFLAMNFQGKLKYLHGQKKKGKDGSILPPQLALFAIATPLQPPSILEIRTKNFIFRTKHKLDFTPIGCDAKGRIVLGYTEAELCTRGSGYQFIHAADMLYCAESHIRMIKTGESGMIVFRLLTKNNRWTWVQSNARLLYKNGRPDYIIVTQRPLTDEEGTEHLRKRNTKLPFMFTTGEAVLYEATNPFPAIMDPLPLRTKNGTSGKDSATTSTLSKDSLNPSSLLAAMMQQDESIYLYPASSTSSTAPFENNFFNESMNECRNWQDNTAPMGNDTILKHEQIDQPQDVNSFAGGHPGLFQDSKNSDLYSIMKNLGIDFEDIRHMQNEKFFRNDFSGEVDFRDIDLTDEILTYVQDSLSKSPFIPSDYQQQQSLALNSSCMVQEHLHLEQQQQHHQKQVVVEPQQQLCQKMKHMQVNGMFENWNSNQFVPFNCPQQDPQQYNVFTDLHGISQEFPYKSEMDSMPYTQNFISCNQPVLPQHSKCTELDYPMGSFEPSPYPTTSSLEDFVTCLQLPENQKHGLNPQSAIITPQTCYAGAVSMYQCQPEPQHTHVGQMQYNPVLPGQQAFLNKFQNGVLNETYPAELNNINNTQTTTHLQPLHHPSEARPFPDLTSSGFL
Excerpt: (§2) To characterize the chemical induced AHR activity, we used the already established HAHLH reporter cell lines obtained by stably expression of HeLa cells with the dioxin-responsive gene XRE(TnGCGTG)3-tata-luciferase-Luc-hygromycin plasmid.[29] The reporter HELN hERα cell line was obtained by transfecting human HeLa cells with the ERE-responsive gene ERE-βGlobin-luciferase-Luc-neomycin and the pSG5-hERα-puromycin plasmids as previously described.[59] To determine the action of the chemical on AHR and hERα activity, cells were seeded at a density of 50,000 cells per well in 96-well white opaque tissue culture plates (Greiner CellStar) in 150 μL of Dulbecco’s Modified Eagle Medium: Nutrient Mixture F-12 (DMEM/F- 12) without phenol red and 1 g/L glucose and supplemented with 5% stripped fetal bovine serum, 100 units/mL of penicillin, 100 μg/mL of streptomycin (test medium). Twenty-four hours later, chemicals to be tested were added at 4x concentration in culture medium, and cells were incubated at 37 °C for 8 h (HAhLH cells) or 24 h (HELN hERα cells). At the end of the incubation period, culture medium was replaced with test medium containing 0.3 mM luciferin and luciferase activity was measured for 2 s in intact living cells using a MicroBeta Wallac luminometer (PerkinElmer). Tests were performed in quadruplicate at 4x concentration in the same medium in at least 4 independent experiments. Results were expressed as % of the maximal luciferase activity. […] Effective concentration (ECs) for a given compound, EC50 is defined as the concentration inducing 50% of its maximal effect. The EC50 values were calculated including the adjustment for the basal activity of the cell line.

[3] = biological target: T2, hERα (Homo sapiens, UniProt P03372); assay: ER/ERE luciferase reporter assay in HELN hERα cells; type: cell-based; conditions: 10 nM–10 μM compound, with E2, 24 h
T2 construct: expressed in transfected cells; host or cells: HeLa (HELN hERα)
T2 sequence (P03372 1-595): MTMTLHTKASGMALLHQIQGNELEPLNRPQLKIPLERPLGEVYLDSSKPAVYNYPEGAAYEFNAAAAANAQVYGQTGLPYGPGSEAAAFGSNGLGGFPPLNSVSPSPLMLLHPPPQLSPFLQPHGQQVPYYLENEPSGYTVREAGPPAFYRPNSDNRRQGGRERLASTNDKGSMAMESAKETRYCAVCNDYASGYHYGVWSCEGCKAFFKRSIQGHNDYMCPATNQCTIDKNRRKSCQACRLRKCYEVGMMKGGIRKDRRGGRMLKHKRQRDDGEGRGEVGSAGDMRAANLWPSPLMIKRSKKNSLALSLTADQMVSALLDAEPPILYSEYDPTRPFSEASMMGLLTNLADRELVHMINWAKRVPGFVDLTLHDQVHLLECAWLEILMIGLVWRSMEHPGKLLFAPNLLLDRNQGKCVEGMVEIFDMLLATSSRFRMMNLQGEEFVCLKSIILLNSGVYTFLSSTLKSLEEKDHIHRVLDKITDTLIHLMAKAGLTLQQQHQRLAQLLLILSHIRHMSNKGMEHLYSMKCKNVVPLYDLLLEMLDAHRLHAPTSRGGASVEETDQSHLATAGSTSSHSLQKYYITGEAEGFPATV
Excerpt: as §2

[4] = system: MCF-7 luc D538G and MCF-7 luc Y537S; assay: Clonogenic assay, cells expressing the two mutant ERs (range over both); type: cell-based; conditions: Homo sapiens, MCF7, read-out: IC50 clonal expansion in cells expressing the two mutant ERs
Procedure: as §1

[5] = system: ER+ MCF-7, ZR75–1, and T47D breast cancer cells; set-up: method as in PMID 37520743; conditions: previously identified ref 17; cited from earlier work

Row | SMILES | inhibition of colony expansion in the presence of AHR antagonist CH223191 [1] | AHR transcriptional activity (reporter), in words [2] | EC50 [2] [nM] | transcription activity of ERα (reporter) [3] | IC50 [4] [nM] | Inhibition of Proliferation [5]
1 | Fc1ccc(-c2cn3cc(C(F)(F)F)cc(Cl)c3n2)cc1 [X15695] | clearly abrogated by the AHR antagonist CH223191 | potency that surpassed that of the classical AHR ligand dioxin | 0.14 | reduced | 7.82 to 11.6 | Yes
2 | Cc1cc(Cl)c2nc(-c3ccc(F)cc3)cn2c1 [X19724] | to a lesser extent | only modest enhancement | 1.37 | reduced | – | Yes
3 | Cc1cc(Cl)c2nc(-c3ccccc3)cn2c1 [X19728] | no effect on colony formation | only modest enhancement | 3.94 | reduced | – | Yes
